Test systems include PC-3; A549; HCT-15; NCI-H460; SN12C; MDA-MB-231; SF-268; OVCAR-8; CCRF-CEM; T47D; OVCAR-5; SK-MEL-28; SK-OV-3; 786-0; IGROV-1; HCT-116; U-251; HL-60; ACHN; MCF7.
Common to all, as to test: NCI tumour cell line growth inhibition, 48 h

From ChEMBL document CHEMBL1201862, “PubChem BioAssay data set” (2004) come the findings set out here.

The structures appear in SMILES notation.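 Cultured in 96-well plates, cells were exposed to test compound for 48 hours across five concentrations. GI50 marks 50% less growth.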 Activity calls are given as the source filed them. Cut-off read from the data, not from the text of the source: active = GI50 up to about 1.1 µM and inactive = higher.

As for `Cc1c(C#N)c2nnn(-c3ccc(Cl)cc3)c(=O)n2c1-c1ccccc1`, the GI50 with PC-3 was 0.0459 µM (active); with A549, 0.166 µM (active); in the test with HCT-15, 0.0628 µM; in the test with NCI-H460 it was 0.0991 µM (active); with SN12C it was 0.107 µM (active); in the test with MDA-MB-231, 0.102 µM (active). The GI50 is 0.199 µM (active) in the test on SF-268; 0.163 µM (active) with OVCAR-8; 0.0991 µM (active) with CCRF-CEM; 6.58 µM (inactive) in the test with T47D; 0.247 µM (active) in the test with OVCAR-5; 10.7 µM (inactive) in the test with SK-MEL-28. The GI50 in the test on SK-OV-3 is 0.145 µM (active); in the test with 786-0, 0.12 µM (active); with IGROV-1, 0.113 µM (active); in the test with HCT-116, 0.0649 µM (active); in the test with U-251, 0.0815 µM (active); in the test on HL-60, 0.0752 µM (active). The results for the GI50 in the test with ACHN and in the test on MCF7 were 0.929 µM (active) and 0.42 µM (active), respectively.
In the case of `COC(=O)C1=C(O)C(C(=O)OC)[C@@]2(O)[C@@H](C(=O)OC)C(c3ccc(OC(=O)/C(=C/c4ccccc4)c4ccccc4)cc3)C[C@@H]1[C@@H]2C(=O)OC` (stereo not given in full), the GI50 in the test with PC-3 is 32.5 µM (inactive); with A549, 69.2 µM (inactive); in the test with HCT-15, 7.18 µM; with NCI-H460, 5.21 µM (inactive); in the test with SN12C, 30.8 µM (inactive); with MDA-MB-231, 23.9 µM (inactive). Also, the GI50 in the test on SF-268 was 47.3 µM (inactive); in the test with OVCAR-8, 14.1 µM (inactive); in the test on CCRF-CEM it was 4.9 µM (inactive); in the test with T47D, > 100 µM (inactive); in the test on OVCAR-5, 80.4 µM (inactive); in the test on SK-MEL-28 it was 81.5 µM (inactive). The GI50 is > 100 µM (inactive) in the test on SK-OV-3; 6.46 µM (inactive) with 786-0; 19 µM (inactive) in the test on IGROV-1; 5 µM (inactive) with HCT-116; 11.2 µM (inactive) in the test with U-251; 17.4 µM (inactive) in the test with HL-60. The GI50 in the test with ACHN is 19.7 µM (inactive); in the test with MCF7, 10.5 µM (inactive).
With `N#CCc1nc(Cc2ccccc2)n[nH]1`, the GI50 in the test with PC-3 was > 100 µM (inactive); in the test with A549, > 100 µM (inactive); with HCT-15 it was greater than 100 µM; in the test on NCI-H460 it was > 100 µM (inactive); in the test on SN12C, > 100 µM (inactive); with MDA-MB-231, > 100 µM (inactive). The GI50 with SF-268, with OVCAR-8, in the test with CCRF-CEM, in the test on T47D, in the test with OVCAR-5 and with SK-MEL-28 was > 100 µM (inactive) in each case. Also, the GI50 in the test with SK-OV-3, in the test with 786-0, in the test on IGROV-1, in the test with HCT-116, with U-251 and in the test with HL-60 was > 100 µM (inactive) throughout. For the same molecule, the GI50 in the test with ACHN and in the test with MCF7 was > 100 µM (inactive) each time.
Consider `CC(=O)C(=C(I)I)c1ccccc1`, for which the GI50 with PC-3 was 31.5 µM (inactive); in the test on A549 it was 24.6 µM (inactive); in the test with HCT-15, 29.3 µM; in the test with NCI-H460, 33.4 µM (inactive); with SN12C, 13.3 µM (inactive); in the test with MDA-MB-231, 22.3 µM (inactive). For the same molecule, the GI50 in the test with SF-268 is 25.1 µM (inactive); in the test on OVCAR-8, 18.3 µM (inactive); in the test on CCRF-CEM, 11.5 µM (inactive); with T47D it was 20.4 µM (inactive); in the test on OVCAR-5, 23.3 µM (inactive); in the test on SK-MEL-28, 19.5 µM (inactive). The GI50 is 41.9 µM (inactive) in the test on SK-OV-3; 19.7 µM (inactive) in the test on 786-0; 26.1 µM (inactive) in the test on IGROV-1; 15.4 µM (inactive) in the test with HCT-116; 17.5 µM (inactive) in the test with U-251; 24.7 µM (inactive) with HL-60. For the same molecule, the GI50 was 18.3 µM (inactive) with ACHN and 27.6 µM (inactive) in the test on MCF7.
Turning to `COc1ccc(/C=C2\CCCC(CN(C)C)C2=O)cc1` (stereo not given), the GI50 with PC-3 was 5.74 µM (inactive); with A549, 17.7 µM (inactive); in the test on HCT-15 it was 1.24 µM; in the test with NCI-H460 it was 21.1 µM (inactive); in the test on SN12C it was 2.56 µM (inactive); in the test with MDA-MB-231 it was 3.03 µM (inactive). Moreover, the GI50 with SF-268 was 3.03 µM (inactive); in the test with OVCAR-8, 3.64 µM (inactive); with CCRF-CEM, 0.971 µM (active); with T47D it was 2.17 µM (inactive); in the test on OVCAR-5, 9.08 µM (inactive); in the test with SK-MEL-28 it was 2.01 µM (inactive). The GI50 in the test on SK-OV-3 was 9.89 µM (inactive); in the test with 786-0, 1.79 µM (inactive); in the test with IGROV-1, 2.69 µM (inactive); in the test with HCT-116, 1.63 µM (inactive); in the test with U-251, 1.95 µM (inactive); with HL-60, 0.618 µM (active). Besides, the results for the GI50 with ACHN and in the test on MCF7 were 2.29 µM (inactive) and 0.638 µM (active), respectively.
Regarding `CC(C)[Si]1(C(C)C)OCC2OC(N3C(=O)NC(=O)C[C@@H]3C(O)c3ccccc3)CC2O[Si](C(C)C)(C(C)C)O1` (stereo not given in full), the GI50 is 4.3 µM (inactive) with PC-3; 11.2 µM (inactive) in the test with A549; 5.42 µM with HCT-15; 3.03 µM (inactive) with NCI-H460; 3.86 µM (inactive) in the test with SN12C; 5.86 µM (inactive) in the test on MDA-MB-231. Besides, the GI50 was 4.14 µM (inactive) in the test on SF-268; 6.19 µM (inactive) in the test with OVCAR-8; 2.54 µM (inactive) in the test on CCRF-CEM; 2.69 µM (inactive) in the test on T47D; 13.5 µM (inactive) in the test with OVCAR-5; 4.51 µM (inactive) in the test with SK-MEL-28. Moreover, the GI50 is 5.71 µM (inactive) in the test on SK-OV-3; 5.93 µM (inactive) in the test with 786-0; 4.74 µM (inactive) with IGROV-1; 4.36 µM (inactive) in the test with HCT-116; 3.24 µM (inactive) in the test on U-251; 2.65 µM (inactive) in the test with HL-60. The GI50 is 7.11 µM (inactive) in the test with ACHN and 3.92 µM (inactive) with MCF7.
As to `CC1CN1C(=O)NCCCCCCNC(=O)N1CC1C` (stereo not given), the GI50 in the test with PC-3 is > 100 µM (inactive); in the test on A549, 31.1 µM (inactive); in the test on HCT-15, greater than 100 µM; with NCI-H460 it was 2.61 µM (inactive); with SN12C, 61.8 µM (inactive); in the test with MDA-MB-231 it was > 100 µM (inactive). Besides, the GI50 in the test with SF-268 is 29.8 µM (inactive); in the test on OVCAR-8 it was 69 µM (inactive); with CCRF-CEM, 14.7 µM (inactive); with T47D, > 73.1 µM (inactive); with OVCAR-5 it was > 100 µM (inactive); in the test on SK-MEL-28 it was > 100 µM (inactive). The GI50 was 66.5 µM (inactive) with SK-OV-3; 51.6 µM (inactive) with 786-0; > 100 µM (inactive) with IGROV-1; 81.3 µM (inactive) with HCT-116; 65.3 µM (inactive) in the test with U-251; 11.9 µM (inactive) in the test on HL-60. The GI50 was 9.53 µM (inactive) in the test with ACHN and 70.3 µM (inactive) in the test with MCF7.
